{"source": "patent US5654274A", "about": "“Biologically active peptides having N-terminal substitutions” (priority 1995, dated 1997)", "assay_type_in_all_cases": "cell-based", "key": {"[1]": {"tested_on": "C. albicans", "experiment": "MIC microtiter assay, C. albicans", "conditions": "Mueller Hinton broth, 16-20 hours at 37° C.", "text": "(§1) Table I, which follows, indicates the Minimal Inhibitory Concentration (MIC) in μg/ml of various peptides, against S. aureus strain ATCC 25923(S), P. aeruginosa strain ATCC 27853(P), and E. coli ATCC strain 25922(E), and C. albicans (CA). […] The peptides ere unsubstituted at the N-terminal, substituted with an acetyl group at the N-terminal as indicated by Ac-; substituted with an octanoyl group at the N-terminal as indicated by Oct-, substituted with sphingosine as indicated by Sph-; substituted with a succinyl group, as indicated by Suc-; substituted with a hexanoyl group, as indicated by Hex-; substituted with a heptanoyl group, as indicated by Hep; substituted with a valeryl group, as indicated by Val-; substituted with, a myristryl group, as indicated by Myr-; or substituted with an ibuprofyl group, as indicated by Ibu-.\nThe procedure for the antibacterial assay is based upon the guidelines of the National Committee for Clinical Laboratory Standards, Document M7-T2, Volume 8, No. 8, 1988.\nStock solutions of peptides with and without the appropriate substitutions,are prepared at a concentration of 512 μg/ml in sterile deionized distilled water and stored at -70° C. Each peptide is a C-terminal amide.\nThe stock peptide solution is diluted in serial dilutions (1:2) down the wells of a microtiter plate so that the final concentrations of peptides in the wells are 0.25, 0.50, 1, 2, 4, 8, 16, 32, 64, 128, and 256 μg/ml. 1-5×10^5 CFUs/ml of either S. aureus ATCC 25923, E. coli ATCC 25922, P. aeruginosa ATCC 27853, or C. albicans, were added to the wells in full strength Mueller Hinton broth (BBL 11443) from a mid-log culture. The inoculum is standardized spectrophotometrically at 600 nm and is verified by colony counts. The plates are incubated for 16-20 hours at 37° C., and the minimal inhibitory concentration (MIC) for each peptide is determined. Minimal inhibitory concentration is defined as the lowest concentration of peptide which produces a clear well in the microtiter plate. […]"}, "[2]": {"tested_on": "S. aureus strain ATCC 25923", "experiment": "Antibacterial MIC microtiter assay (NCCLS M7-T2), S. aureus", "conditions": "S. aureus ATCC 25923; Mueller Hinton broth, 16-20 hours at 37° C.", "text": "as §1\n(§2) The procedure for the antibacterial assay is based upon the guidelines of the National Committee for Clinical Laboratory Standards, Document M7-T2, Volume 8, No. 8, 1988. […]\n(§3) The stock peptide solution is diluted in serial dilutions (1:2) down the wells of a microtiter plate so that the final concentrations of peptides in the wells are 0.25, 0.50, 1, 2, 4, 8, 16, 32, 64, 128, and 256 μg/ml. […] The plates are incubated for 16-20 hours at 37° C., and the minimal inhibitory concentration (MIC) for each peptide is determined. […]"}, "[3]": {"tested_on": "P. aeruginosa strain ATCC 27853", "experiment": "Antibacterial MIC microtiter assay (NCCLS M7-T2), P. aeruginosa", "conditions": "P. aeruginosa ATCC 27853; Mueller Hinton broth, 16-20 hours at 37° C.", "text": "as §1, §2, §3"}, "[4]": {"tested_on": "E. coli ATCC strain 25922", "experiment": "Antibacterial MIC microtiter assay (NCCLS M7-T2), E. coli", "conditions": "E. coli ATCC 25922; Mueller Hinton broth, 16-20 hours at 37° C.", "text": "as §1, §2, §3"}, "[5]": {"tested_on": "S. mutans", "experiment": "Anaerobic antimicrobial susceptibility test (NCCLS M11-T2), S. mutans", "conditions": "BHI broth, 24-48 hours"}, "[6]": {"tested_on": "A. viscosus", "experiment": "Anaerobic antimicrobial susceptibility test (NCCLS M11-T2), A. viscosus", "conditions": "BHI broth, 24-48 hours"}, "[7]": {"tested_on": "P. gingivalis", "experiment": "Anaerobic antimicrobial susceptibility test (NCCLS M11-T2), P. gingivalis", "conditions": "24-48 hours; for MIC P. gingivalis (strain) 9-14K-1: strain 9-14K-1, BHI broth; for MIC P. gingivalis (strain) 381: strain 381, BHI broth; for MIC P. gingivalis (strain) A7A1-28: strain A7A1-28, BHI broth; for MIC P. gingivalis (strain) FAY-19M-1: strain FAY-19M-1, BHI broth; for MIC P. gingivalis (strain) W50: strain W50, BHI broth"}}, "note": "Ends that are not written are not given here. Peptide text beside a SMILES is read from it. * marks the point of attachment. Octanoyl = CCCCCCCC(=O)*"}
{"compound": "CCCCCCCC(=O)N[C@@H](CCCCN)C(=O)N[C@@H](Cc1c[nH]c2ccccc12)C(=O)N[C@@H](CCCCN)C(=O)N[C@@H](CC(C)C)C(=O)N[C@@H](Cc1ccccc1)C(=O)N[C@@H](CCCCN)C(=O)N[C@@H](CCCCN)C(=O)N[C@H](C(=O)N[C@@H](CCC(=O)O)C(=O)N[C@@H](CCCCN)C(=O)N[C@H](C(N)=O)C(C)C)[C@@H](C)CC", "note": "[Oct-(SEQ ID NO: 136)-NH2] (Octanoyl-KWKLFKKIEKV-NH2)", "values": [{"measurement": "Minimal Inhibitory Concentration CA", "setting": "[1]", "value": 128, "unit": "µg/mL"}]}
{"compound": "CCCCCCCC(=O)NCC(=O)N[C@H](C(=O)N[C@@H](CCCCN)C(=O)N[C@@H](CCCCN)C(=O)N[C@@H](Cc1ccccc1)C(=O)N[C@@H](CC(C)C)C(=O)N[C@@H](CCCCN)C(=O)N[C@@H](CCCCN)C(=O)N[C@@H](C)C(=O)NCC(=O)N[C@@H](CCCCN)C(=O)N[C@@H](Cc1ccccc1)C(=O)NCC(=O)N[C@@H](CCCCN)C(=O)N[C@@H](C)C(=O)N[C@@H](Cc1ccccc1)C(N)=O)[C@@H](C)CC", "note": "[Oct-(SEQ ID NO: 149)-NH2] (Octanoyl-GIKKFLKKAGKFGKAF-NH2)", "values": [{"measurement": "Minimal Inhibitory Concentration CA", "setting": "[1]", "value": 128, "unit": "µg/mL"}]}
{"compound": "(SEQ ID NO: 27)-OH: unsubstituted (Lys Ile Ala Gly Lys Ile Ala)3, C-terminal OH (KIAGKIAKIAGKIAKIAGKIA-OH)", "values": [{"measurement": "Minimal Inhibitory Concentration S", "setting": "[2]", "value": 128, "unit": "µg/mL"}, {"measurement": "Minimal Inhibitory Concentration P", "setting": "[3]", "value": 128, "unit": "µg/mL"}, {"measurement": "Minimal Inhibitory Concentration E", "setting": "[4]", "value": 8, "unit": "µg/mL"}]}
{"compound": "(SEQ ID NO: 86)-OH: unsubstituted (Lys Ile Ala Lys Lys Ile Ala)3, C-terminal OH (KIAKKIAKIAKKIAKIAKKIA-OH)", "values": [{"measurement": "MIC S. mutans", "setting": "[5]", "value": 16, "unit": "μl/ml"}, {"measurement": "Minimal Inhibitory Concentration S", "setting": "[2]", "value": 128, "unit": "µg/mL"}, {"measurement": "Minimal Inhibitory Concentration P", "setting": "[3]", "value": 32, "unit": "µg/mL"}, {"measurement": "Minimal Inhibitory Concentration E", "setting": "[4]", "value": 2, "unit": "µg/mL"}, {"measurement": "Minimal Inhibitory Concentration CA", "setting": "[1]", "value": 256, "unit": "µg/mL"}, {"measurement": "MIC A. viscos", "setting": "[6]", "value": 32, "unit": "μl/ml"}, {"measurement": "MIC P. gingivalis (strain) 9-14K-1", "setting": "[7]", "value": 16, "unit": "μl/ml"}, {"measurement": "MIC P. gingivalis (strain) 381", "setting": "[7]", "value": 16, "unit": "μl/ml"}, {"measurement": "MIC P. gingivalis (strain) A7A1-28", "setting": "[7]", "value": 4, "unit": "μl/ml"}, {"measurement": "MIC P. gingivalis (strain) FAY-19M-1", "setting": "[7]", "value": 8, "unit": "μl/ml"}, {"measurement": "MIC P. gingivalis (strain) W50", "setting": "[7]", "value": 4, "unit": "μl/ml"}]}
{"compound": "KIAKKIAKIAKKIAKIAKKIA-NH2 [(SEQ ID NO: 86)-NH2]", "values": [{"measurement": "MIC S. mutans", "setting": "[5]", "value": 4, "unit": "μl/ml"}, {"measurement": "MIC A. viscos", "setting": "[6]", "value": 16, "unit": "μl/ml"}, {"measurement": "MIC P. gingivalis (strain) 9-14K-1", "setting": "[7]", "value": 8, "unit": "μl/ml"}, {"measurement": "MIC P. gingivalis (strain) 381", "setting": "[7]", "value": 8, "unit": "μl/ml"}, {"measurement": "MIC P. gingivalis (strain) A7A1-28", "setting": "[7]", "value": 2, "unit": "μl/ml"}, {"measurement": "MIC P. gingivalis (strain) FAY-19M-1", "setting": "[7]", "value": "8,128 μl/ml"}, {"measurement": "MIC P. gingivalis (strain) W50", "setting": "[7]", "value": 4, "unit": "μl/ml"}]}
